Where a SMILES comes first, the peptide text is derived from it.
Tests used:
ACE (from rabbit lung) = target: T1, ACE (from rabbit lung) (Oryctolagus cuniculus, UniProt P12822); assay: In vitro ACE inhibitory activity assay (HHL substrate, hippuric acid by HPLC); assay type: biochemical; conditions: synthetic peptides; read-out: IC50 for ACE inhibition (converted)
T1 construct: ACE (from rabbit lung); purchased Sigma Chemicals Co., Ltd. (St. Louis, MO, USA); host or cells: rabbit lung (tissue of origin)
T1 sequence (P12822 34-1310): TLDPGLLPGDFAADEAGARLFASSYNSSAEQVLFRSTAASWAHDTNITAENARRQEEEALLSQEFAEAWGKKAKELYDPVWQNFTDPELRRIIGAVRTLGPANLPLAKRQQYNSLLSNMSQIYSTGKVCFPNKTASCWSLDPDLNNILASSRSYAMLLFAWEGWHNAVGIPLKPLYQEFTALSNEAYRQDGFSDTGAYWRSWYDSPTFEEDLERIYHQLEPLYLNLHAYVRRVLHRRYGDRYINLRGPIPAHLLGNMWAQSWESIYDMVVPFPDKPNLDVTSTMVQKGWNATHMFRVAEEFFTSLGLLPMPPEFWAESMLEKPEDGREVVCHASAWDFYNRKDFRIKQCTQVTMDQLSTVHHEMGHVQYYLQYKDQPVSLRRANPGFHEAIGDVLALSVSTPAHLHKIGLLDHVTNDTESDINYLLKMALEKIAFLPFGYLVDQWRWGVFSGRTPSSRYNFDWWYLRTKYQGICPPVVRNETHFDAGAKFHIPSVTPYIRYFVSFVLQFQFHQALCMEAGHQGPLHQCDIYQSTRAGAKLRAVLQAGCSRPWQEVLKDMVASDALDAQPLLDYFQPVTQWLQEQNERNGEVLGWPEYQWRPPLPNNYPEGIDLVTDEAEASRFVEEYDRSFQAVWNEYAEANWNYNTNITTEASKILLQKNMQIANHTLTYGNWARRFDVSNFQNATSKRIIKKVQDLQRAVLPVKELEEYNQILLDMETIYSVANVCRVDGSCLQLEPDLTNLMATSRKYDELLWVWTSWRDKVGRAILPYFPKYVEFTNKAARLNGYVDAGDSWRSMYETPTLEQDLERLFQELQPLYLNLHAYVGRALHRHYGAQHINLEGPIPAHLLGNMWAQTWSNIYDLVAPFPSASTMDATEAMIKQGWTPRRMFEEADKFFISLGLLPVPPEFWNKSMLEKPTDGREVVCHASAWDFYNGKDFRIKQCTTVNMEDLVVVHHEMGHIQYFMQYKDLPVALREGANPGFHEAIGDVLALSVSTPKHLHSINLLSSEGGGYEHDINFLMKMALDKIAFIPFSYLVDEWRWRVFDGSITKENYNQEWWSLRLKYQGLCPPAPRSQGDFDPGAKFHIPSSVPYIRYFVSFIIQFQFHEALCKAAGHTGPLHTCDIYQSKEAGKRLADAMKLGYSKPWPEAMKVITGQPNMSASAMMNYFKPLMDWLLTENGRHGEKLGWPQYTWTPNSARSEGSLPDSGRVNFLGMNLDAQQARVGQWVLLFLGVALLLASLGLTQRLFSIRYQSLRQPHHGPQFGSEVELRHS
Source text: (§1) Raw sardines (S. pilchardus) were purchased from Xiangtai Fisheries Co., Ltd. (Haikou, Hainan, China). ACE (from rabbit lung) and N-Hippuryl-His-Leu (HHL) were purchased from Sigma Chemicals Co., Ltd. (St. Louis, MO, USA). Dispase (enzyme activity 200 U/mg) was purchased from Adamas Chemicals Co., Ltd. (Shanghai, China). Alkaline protease (enzyme activity 200 U/mg) and borate buffer solution (BBS, pH8.4, containing 0.1 M H3BO3 and 0.025 M Na2B4O7) were purchased from Shanghai Yuanye Biotechnology Co., Ltd. (Shanghai, China). Trifluoroacetic acid (TFA), formic acid (FA), and acetonitrile (ACN) were obtained from Thermo Fisher Scientific Co., Ltd. (Waltham, MA, USA). The materials used for HPLC analysis were of HPLC grade, and all other reagents were of analytical grade. Artificial gastric fluid (10 g/L pepsin) and artificial intestinal fluid (10 g/L pancreatic enzyme) were purchased from Guangzhou Testing Technology Co., Ltd. (Guangzhou, China).
The ACE inhibitory activity assay was determined according to a previous report with some modifications. HHL was dissolved in BBS to make a solution with a concentration of 5 mmol/L. The ACE was dissolved in BBS at a concentration of 0.06 U/mL. The reaction system was as follows: 20 μL of 0.06 U/mL ACE solution and 40 μL of sample solution or control (BBS) was added. After 5 min in a water bath at 37 °C, 50 μL of 5 mM HHL was added and incubated at 37 °C for 1 h. At the end of the incubation, 50 μL of […] was added to terminate the reaction. 500 μL water was added to the reaction system. Hippuric acid (HA) was quantified after being released from the system using HPLC and InertSustain C18 (5 μm, 4.6 × 250 mm). HPLC analysis conditions were as follows: the UV wavelength was constant at 228 nm, the mobile phase was 0.1% TFA/25% ACN in water, the flow rate was 1 mL/min, and the injection volume was 10 μL. The ACE inhibition activity was calculated by the following equation:(1) ACE Inhibition Activity=∆A−∆B/∆A × 100, where ΔA represented the peak area of HA in the control group; ΔB represented the peak area of the sample group.
All experiments were performed in triplicate (except for the molecular docking results), and data were reported as mean ± SD (n ≥ 3). An ANOVA test using SPSS 26.0 (SPSS Corporation, Chicago, IL, USA) was used to analyze the experimental data. The IC50 value was defined as the half concentration of the peptide required to inhibit the ACE activity, and the IC50 of the ACE inhibitory peptides was determined by calculating the ACE inhibition rate at various sample concentrations using the SPSS 26.0 probit regression model.

[1] = Digestive stability in artificial intestinal fluid; assay type: in vitro ADME; conditions: 37 °C, 2.0 h
Source text: as §1
Peptides were quantified using HPLC and InertSustain C18 (5 μm, 4.6 × 250 mm). For FIGR, HPLC analysis conditions were as follows: the UV wavelength was constant at 228 nm, the mobile phase was 0.1% TFA/15% ACN in water, the flow rate was 1 mL/min, and the injection volume was 10 μL. For rest peptides, the mobile phase was 0.1% TFA/25% ACN in water, and the other conditions were the same as FIGR.
The peptide solutions of 0.10, 0.25, 0.50, 1.00, and 1.50 mg/mL were prepared precisely, and the peak areas of the peptides at different concentration conditions were determined. The peak area was plotted as the vertical coordinate and the concentration as the horizontal coordinate to find out the regression equation.
In total, 50 μL of the 10 mg/mL peptide solution was mixed with 450 μL of artificial gastric fluid or artificial intestinal fluid in a water bath at 37 °C for 2.0 h. Then, digestion was stopped in a water bath at 90 °C for 5 min, and the method for determining the peptide content was mentioned in Section 2.10.1. Peptide preservation rate was calculated as (3) Peptide Preservation Rate=Peptide content after treatment/Peptide content before treatment × 100,

ACE = conditions: cited from earlier work
[2] = ABTS+ scavenging activity; conditions: positive control 10 μg/mL
Experimental: The 2,2′-Azinobis(3-ethylbenzothiazoline-6-sulfonic acid Ammonium Salt (ABTS) is commonly utilized as a stable free radical source in experiments. It is oxidized by potassium persulfate to produce an ABTS+ radical cation, which has a blue-green hue and absorbs light at 734 nm. When antioxidants are added, the free radical cations are reduced to the colorless ABTS form.
The ABTS+ was generated by mixing 7 mM ABTS and 4.09 mM potassium persulfate in the same volume, and the mixture was kept in the dark at room temperature for 12 h before use. The sample (1 mg/mL) group added sample 0.5 mL with 1 mL of ABTS+ solution. Control group was the same as the sample group, except that the sample was replaced with deionized water. Blank group was added deionized water 0.5 mL with 1 mL of ABTS+ solution. After incubation at room temperature for 6 min, the absorbance was tested at 734 nm. The positive control was 10 μg/mL glutathione (GSH). The sample’s concentration of 1 mg/mL falls within the linear range of the sample’s ABTS scavenging ability. (5) ABTS+Scavenging Activity=(1 − A1−A2/A3) × 100, where A1 is absorbance of sample group, A2 is absorbance of control group, and A3 is absorbance of blank group.

[3] = DPPH radical scavenging activity; conditions: positive control 10 μg/mL
Experimental: The 2,2-diphenyl-1-picrylhydrazyl (DPPH) is a stable free radical with a distinct purple color and absorbs light at 517 nm. Antioxidants added to the DPPH solution lead to a reduction in the DPPH radical to a non-radical form, resulting in a decrease in the solution’s absorbance. […] This principle of DPPH radical scavenging is commonly utilized for evaluating the antioxidant capacity of various substances, such as peptides.
Sample (1 mg/mL) group was aliquots of samples being mixed 1:1 (v/v) with 0.1 mmol/L DPPH (in ethanol absolute); control group was aliquots of samples being mixed 1:1 (v/v) with ethanol absolute; and blank group was aliquots of ethanol absolute being mixed 1:1 (v/v) with 0.1 mmol/L DPPH (in ethanol absolute). The mixture was shaken and kept for 40 min at room temperature and protected from light. The radical scavenging activity of DPPH radical was determined by measuring the absorbance at 517 nm. […] In this study, the sample concentration was 1 mg/mL, which was determined to be within the linear range of the concentration of the sample and its DPPH scavenging ability. The ability of the sample to scavenge DPPH radical was calculated according to the following equation:(4) DPPH Radical Scavenging Activity=(1 − Ai−Aj/A0) × 100, where Ai is absorbance of sample group, Aj is absorbance of control group, and A0 is absorbance of blank group.

[4] = Fe2+-chelating ability (ferrozine); conditions: positive control 10 μg/mL
Experimental: When Fe^2+ and ferrozine are combined, they form a stable magenta-colored complex. The presence of chelators in the solution can cause them to bind with the Fe^2+ ions, thereby preventing the formation of the Fe^2+-ferrozine complex. As a result, the amount of Fe^2+-ferrozine complex in the solution decreases, leading to a decrease in the absorbance of the solution at 562 nm.
The sample (1 mg/mL) group was a 1 mL sample mixed with 3.7 mL deionized water and 0.1 mL of FeCl2 (2 mmol/L) and 0.2 mL of ferrozine (5 mmol/L). The mixture was protected from light and kept at room temperature for 10 min prior to measuring the absorbance at 562 nm. Control group contained everything, except it used deionized water instead of sample, and blank group used deionized water instead of FeCl2 (2 mmol/L). […] The chelating ability was calculated according to the following equation:(7) Fe^2+-chelating ability=(1 − A1−A2/A3) × 100, where A1 is absorbance of sample group, A2 is absorbance of blank group, and A3 is absorbance of control group.

[5] = Hydroxyl radical scavenging activity (salicylic acid); conditions: positive control 10 μg/mL
Experimental: The hydroxyl radical (·OH) is a free radical that comprises an oxygen atom and a hydrogen atom (·OH). The principle behind measuring hydroxyl radical scavenging activity involves the reaction between the hydroxyl radical and salicylic acid, which produces 2, 3-dihydroxybenzoic acid that can be quantified by measuring the absorbance at 510 nm.
The 1 mL of sample (1 mg/mL) was mixed with 1 mL of 4.5 mmol/L of ferrous sulfate and 1 mL of 30% H2O2 (v/v). The reaction mixture was standing for 10 min after vortexing. Then, 1 mL of 4.5 mmol/L salicylic acid was added and subsequently vortexed. After a water bath at 37 °C for 30 min, the absorbance of the mixture was measured at 510 nm (As). For the control, deionized water was added instead of salicylic acid (Ac). Vitamin C (Vc) was used as a positive control at 10 μg/mL. Hydroxyl radical scavenging activity was calculated as follows:(6) Hydroxyl Radical Scavenging Activity=(1 − Ac−As/Ac) × 100,

Molecule	IC50 (ACE (from rabbit lung)) [µM]	Retention rate after intestinal digestion [1]	also measured
AEYLCEAC			IC50 (ACE): 4290 µM
RWDISQPY			ACE inhibition pattern (ACE): Competitive
N[C@@H](CCC(=O)N[C@@H](CS)C(=O)NCC(=O)O)C(=O)O [GSH, Glutathione]			ABTS scavenging capacity [2]: 9.01% ± 0.69; DPPH scavenging capacity [3]: 33.25% ± 1.44
O=C([O-])CN(CCN(CC(=O)O)CC(=O)O)CC(=O)[O-].[Na+].[Na+] [EDTA-2Na]			Fe2+ chelating capacity [4]: 28.81% ± 1.13
O=C1O[C@H]([C@@H](O)CO)C(O)=C1O [Vc, Vitamin C]			Hydroxyl radical scavenging ability [5]: 9.39% ± 0.54
CC[C@H](C)[C@H](NC(=O)[C@@H](N)Cc1ccccc1)C(=O)NCC(=O)N[C@@H](CCCNC(=N)N)C(=O)O [FIGR] (H-FIGR-OH; N-terminus and C-terminus assumed)	1220	50.78% ± 0.77	

The next lines start with results.

IC50 (ACE (from rabbit lung)) [µM]	Retention rate after intestinal digestion [1]	Molecule	also measured
1500	73.36% ± 0.86	CC(C)C[C@H](NC(=O)[C@H](Cc1ccccc1)NC(=O)[C@@H](N)CCCCN)C(=O)O [KFL] (H-Lys-Phe-Leu-OH; N-terminus and C-terminus assumed)	
	25.62% ± 2.01	CC(C)C[C@H](NC(=O)[C@H](CCCNC(=N)N)NC(=O)[C@H](CCC(N)=O)NC(=O)[C@@H](N)Cc1ccccc1)C(=O)O [FQRL] (H-FQRL-OH; N-terminus and C-terminus assumed)	
2190	88.92% ± 2.60	CC(C)C[C@H](NC(=O)[C@@H](N)CCCCN)C(=O)N[C@@H](Cc1ccccc1)C(=O)O [KLF] (H-Lys-Leu-Phe-OH; N-terminus and C-terminus assumed)	
1310	10.83% ± 0.44	CC(C)C[C@H](NC(=O)[C@H](C)NC(=O)[C@H](CCCNC(=N)N)NC(=O)[C@@H](N)Cc1ccccc1)C(=O)O [FRAL] (H-FRAL-OH; N-terminus and C-terminus assumed)	
	86.23% ± 1.60	CC[C@H](C)[C@H](NC(=O)[C@@H](N)Cc1ccccc1)C(=O)N[C@@H](CC(C)C)C(=O)N[C@@H](CCCNC(=N)N)C(=O)O [FILR] (H-FILR-OH; N-terminus and C-terminus assumed)	
